Assay results published in PubChem BioAssay (NCI).
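Cultured in 96-well plates, cells were exposed to test compound for 48 hours across five concentrations. Definition used: TGI = concentration required for complete inhibition of growth.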

What was measured:
Assay in all cases: DTP human tumour cell line panel, 48 h
786-0 renal = tested on: 786-0 renal
A498 renal = tested on: A498 renal
A549 NSCLC = tested on: A549 NSCLC
ACHN renal = tested on: ACHN renal
CAKI-1 renal = tested on: CAKI-1 renal
CCRF-CEM leukemia = tested on: CCRF-CEM leukemia
COLO 205 colon = tested on: COLO 205 colon
DLD-1 colon = tested on: DLD-1 colon
DMS 114 small cell lung = tested on: DMS 114 small cell lung
DMS 273 small cell lung = tested on: DMS 273 small cell lung
EKVX NSCLC = tested on: EKVX NSCLC
HCC-2998 colon = tested on: HCC-2998 colon
HL-60(TB) leukemia = tested on: HL-60(TB) leukemia
HOP-62 NSCLC = tested on: HOP-62 NSCLC
HOP-92 NSCLC = tested on: HOP-92 NSCLC
HT29 colon = tested on: HT29 colon
IGROV1 ovarian = tested on: IGROV1 ovarian
K-562 leukemia = tested on: K-562 leukemia
KM12 colon = tested on: KM12 colon
KM20L2 colon = tested on: KM20L2 colon
LOX IMVI melanoma = tested on: LOX IMVI melanoma
LXFL 529 NSCLC = tested on: LXFL 529 NSCLC
M14 melanoma = tested on: M14 melanoma
M19-MEL melanoma = tested on: M19-MEL melanoma
MALME-3M melanoma = tested on: MALME-3M melanoma
MOLT-4 leukemia = tested on: MOLT-4 leukemia
NCI-H226 lung = tested on: NCI-H226 lung
NCI-H23 lung = tested on: NCI-H23 lung
NCI-H460 lung = tested on: NCI-H460 lung
NCI-H522 lung = tested on: NCI-H522 lung
OVCAR-3 ovarian = tested on: OVCAR-3 ovarian
OVCAR-4 ovarian = tested on: OVCAR-4 ovarian
OVCAR-5 ovarian = tested on: OVCAR-5 ovarian
OVCAR-8 ovarian = tested on: OVCAR-8 ovarian
RPMI-8226 leukemia = tested on: RPMI-8226 leukemia
RXF 393 renal = tested on: RXF 393 renal
RXF-631 renal = tested on: RXF-631 renal
SF-268 CNS = tested on: SF-268 CNS
SF-295 CNS = tested on: SF-295 CNS
SF-539 CNS = tested on: SF-539 CNS
SK-MEL-2 melanoma = tested on: SK-MEL-2 melanoma
SK-MEL-28 melanoma = tested on: SK-MEL-28 melanoma
SK-MEL-5 melanoma = tested on: SK-MEL-5 melanoma
SK-OV-3 ovarian = tested on: SK-OV-3 ovarian
SN12C renal = tested on: SN12C renal
SNB-19 CNS = tested on: SNB-19 CNS
SNB-75 CNS = tested on: SNB-75 CNS
SNB-78 CNS = tested on: SNB-78 CNS
SW-620 colon = tested on: SW-620 colon
TK-10 renal = tested on: TK-10 renal
U251 CNS = tested on: U251 CNS
UACC-257 melanoma = tested on: UACC-257 melanoma
UO-31 renal = tested on: UO-31 renal
XF 498 CNS = tested on: XF 498 CNS
HCT-116 colon = tested on: HCT-116 colon
HCT-15 colon = tested on: HCT-15 colon
HOP-18 NSCLC = tested on: HOP-18 NSCLC
SR leukemia = tested on: SR leukemia
UACC-62 melanoma = tested on: UACC-62 melanoma

For `CCOc1ccc(NC(=O)C2=C(C)NC(C)=C(C(=O)Nc3ccc(OCC)cc3)C2c2ccccc2)cc1`, the TGI (786-0 renal) was greater than 100 µM, the TGI (A498 renal) was greater than 100 µM and the TGI (A549 NSCLC) was greater than 100 µM. It also gave a TGI (ACHN renal) greater than 100 µM, a TGI (CAKI-1 renal) greater than 100 µM and a TGI (CCRF-CEM leukemia) greater than 100 µM. For the same molecule, the TGI (COLO 205 colon) was greater than 100 µM, the TGI (DLD-1 colon) was greater than 100 µM and the TGI (DMS 114 small cell lung) was greater than 100 µM. For the same molecule, the TGI (DMS 273 small cell lung) was greater than 100 µM, the TGI (EKVX NSCLC) was greater than 100 µM and the TGI (HCC-2998 colon) was greater than 100 µM. For the same molecule, the TGI (HL-60(TB) leukemia) was 96.9 µM, the TGI (HOP-62 NSCLC) was greater than 100 µM and the TGI (HOP-92 NSCLC) was greater than 100 µM. The TGI (HT29 colon) was greater than 100 µM, the TGI (IGROV1 ovarian) was greater than 100 µM and the TGI (K-562 leukemia) was greater than 100 µM. The TGI (KM12 colon) was greater than 100 µM, the TGI (KM20L2 colon) was greater than 100 µM and the TGI (LOX IMVI melanoma) was greater than 100 µM. The TGI (LXFL 529 NSCLC) was greater than 100 µM, the TGI (M14 melanoma) was greater than 100 µM and the TGI (M19-MEL melanoma) was greater than 100 µM. It also gave a TGI (MALME-3M melanoma) greater than 100 µM, a TGI (MOLT-4 leukemia) greater than 100 µM and a TGI (NCI-H226 lung) greater than 100 µM. It also gave a TGI (NCI-H23 lung) greater than 100 µM, a TGI (NCI-H460 lung) greater than 100 µM and a TGI (NCI-H522 lung) greater than 100 µM. It also gave a TGI (OVCAR-3 ovarian) greater than 100 µM, a TGI (OVCAR-4 ovarian) greater than 100 µM and a TGI (OVCAR-5 ovarian) greater than 100 µM. It also gave a TGI (OVCAR-8 ovarian) greater than 100 µM, a TGI (RPMI-8226 leukemia) greater than 100 µM and a TGI (RXF 393 renal) greater than 100 µM. For the same molecule, the TGI (RXF-631 renal) was greater than 100 µM, the TGI (SF-268 CNS) was greater than 100 µM and the TGI (SF-295 CNS) was greater than 100 µM. It also gave a TGI (SF-539 CNS) greater than 100 µM, a TGI (SK-MEL-2 melanoma) greater than 100 µM and a TGI (SK-MEL-28 melanoma) greater than 100 µM. The TGI (SK-MEL-5 melanoma) was greater than 100 µM, the TGI (SK-OV-3 ovarian) was greater than 100 µM and the TGI (SN12C renal) was greater than 100 µM. The TGI (SNB-19 CNS) was greater than 100 µM, the TGI (SNB-75 CNS) was greater than 100 µM and the TGI (SNB-78 CNS) was greater than 100 µM. For the same molecule, the TGI (SW-620 colon) was greater than 100 µM, the TGI (TK-10 renal) was greater than 100 µM and the TGI (U251 CNS) was greater than 100 µM. For the same molecule, the TGI (UACC-257 melanoma) was greater than 100 µM, the TGI (UO-31 renal) was greater than 100 µM and the TGI (XF 498 CNS) was greater than 100 µM.

`NC(N)=NS(=O)(=O)c1ccc(Nc2c3ccccc3nc3c(C(=O)Nc4ccc(S(N)(=O)=O)cc4)ccc(Cl)c23)cc1` showed a TGI (786-0 renal) greater than 100 µM, a TGI (A498 renal) greater than 100 µM and a TGI (A549 NSCLC) greater than 100 µM. The TGI (ACHN renal) was greater than 100 µM, the TGI (CAKI-1 renal) was greater than 100 µM and the TGI (COLO 205 colon) was greater than 100 µM. The TGI (DLD-1 colon) was greater than 100 µM, the TGI (DMS 114 small cell lung) was greater than 100 µM and the TGI (DMS 273 small cell lung) was greater than 100 µM. The TGI (EKVX NSCLC) was greater than 100 µM, the TGI (HCC-2998 colon) was greater than 100 µM and the TGI (HCT-116 colon) was greater than 100 µM. The TGI (HCT-15 colon) was greater than 100 µM, the TGI (HL-60(TB) leukemia) was greater than 100 µM and the TGI (HOP-18 NSCLC) was greater than 100 µM. The TGI (HOP-62 NSCLC) was greater than 100 µM, the TGI (HOP-92 NSCLC) was greater than 100 µM and the TGI (HT29 colon) was greater than 100 µM. The TGI (IGROV1 ovarian) was greater than 100 µM, the TGI (K-562 leukemia) was greater than 100 µM and the TGI (KM12 colon) was greater than 100 µM. For the same molecule, the TGI (KM20L2 colon) was greater than 100 µM, the TGI (LOX IMVI melanoma) was greater than 100 µM and the TGI (LXFL 529 NSCLC) was greater than 100 µM. It also gave a TGI (M14 melanoma) greater than 100 µM, a TGI (M19-MEL melanoma) greater than 100 µM and a TGI (MALME-3M melanoma) greater than 100 µM. For the same molecule, the TGI (MOLT-4 leukemia) was greater than 100 µM, the TGI (NCI-H226 lung) was greater than 100 µM and the TGI (NCI-H23 lung) was greater than 100 µM. The TGI (NCI-H460 lung) was greater than 100 µM, the TGI (NCI-H522 lung) was greater than 100 µM and the TGI (OVCAR-3 ovarian) was greater than 100 µM. It also gave a TGI (OVCAR-4 ovarian) greater than 100 µM, a TGI (OVCAR-5 ovarian) greater than 100 µM and a TGI (OVCAR-8 ovarian) greater than 100 µM. It also gave a TGI (RPMI-8226 leukemia) greater than 100 µM, a TGI (RXF 393 renal) greater than 100 µM and a TGI (RXF-631 renal) greater than 100 µM. It also gave a TGI (SF-268 CNS) greater than 100 µM, a TGI (SF-295 CNS) greater than 100 µM and a TGI (SF-539 CNS) greater than 100 µM. The TGI (SK-MEL-28 melanoma) was greater than 100 µM, the TGI (SK-MEL-5 melanoma) was greater than 100 µM and the TGI (SK-OV-3 ovarian) was greater than 100 µM. For the same molecule, the TGI (SN12C renal) was greater than 100 µM, the TGI (SNB-19 CNS) was greater than 100 µM and the TGI (SNB-75 CNS) was greater than 100 µM. The TGI (SNB-78 CNS) was greater than 100 µM, the TGI (SR leukemia) was greater than 100 µM and the TGI (SW-620 colon) was greater than 100 µM. It also gave a TGI (TK-10 renal) greater than 100 µM, a TGI (U251 CNS) greater than 100 µM and a TGI (UACC-257 melanoma) greater than 100 µM. For the same molecule, the TGI (UACC-62 melanoma) was greater than 100 µM, the TGI (UO-31 renal) was greater than 100 µM and the TGI (XF 498 CNS) was greater than 100 µM.

Molecule `O=C(NC1C2CC3CC(C2)CC1C3)c1cc(/C=C/c2ccccc2)[nH]c(=S)n1` (centres undefined) has a TGI (786-0 renal) greater than 100 µM, a TGI (A498 renal) greater than 100 µM and a TGI (A549 NSCLC) greater than 100 µM. The TGI (ACHN renal) was greater than 100 µM, the TGI (CAKI-1 renal) was greater than 100 µM and the TGI (CCRF-CEM leukemia) was greater than 100 µM. It also gave a TGI (COLO 205 colon) greater than 100 µM, a TGI (DLD-1 colon) greater than 100 µM and a TGI (DMS 114 small cell lung) greater than 100 µM. For the same molecule, the TGI (DMS 273 small cell lung) was greater than 100 µM, the TGI (EKVX NSCLC) was greater than 100 µM and the TGI (HCC-2998 colon) was greater than 100 µM. It also gave a TGI (HCT-116 colon) greater than 100 µM, a TGI (HL-60(TB) leukemia) greater than 100 µM and a TGI (HOP-62 NSCLC) greater than 100 µM. For the same molecule, the TGI (IGROV1 ovarian) was greater than 100 µM, the TGI (K-562 leukemia) was greater than 100 µM and the TGI (KM12 colon) was greater than 100 µM. It also gave a TGI (KM20L2 colon) greater than 100 µM, a TGI (LOX IMVI melanoma) greater than 100 µM and a TGI (LXFL 529 NSCLC) greater than 100 µM. It also gave a TGI (M14 melanoma) greater than 100 µM, a TGI (M19-MEL melanoma) greater than 100 µM and a TGI (MALME-3M melanoma) greater than 100 µM. For the same molecule, the TGI (MOLT-4 leukemia) was greater than 100 µM, the TGI (NCI-H23 lung) was greater than 100 µM and the TGI (NCI-H460 lung) was greater than 100 µM. The TGI (NCI-H522 lung) was greater than 100 µM, the TGI (OVCAR-3 ovarian) was greater than 100 µM and the TGI (OVCAR-4 ovarian) was greater than 100 µM. It also gave a TGI (OVCAR-5 ovarian) greater than 100 µM, a TGI (OVCAR-8 ovarian) greater than 100 µM and a TGI (RPMI-8226 leukemia) greater than 100 µM. It also gave a TGI (RXF 393 renal) greater than 100 µM, a TGI (RXF-631 renal) greater than 100 µM and a TGI (SF-268 CNS) greater than 100 µM. It also gave a TGI (SF-295 CNS) greater than 100 µM, a TGI (SF-539 CNS) greater than 100 µM and a TGI (SK-MEL-2 melanoma) greater than 100 µM. The TGI (SK-MEL-28 melanoma) was greater than 100 µM, the TGI (SK-MEL-5 melanoma) was greater than 100 µM and the TGI (SK-OV-3 ovarian) was greater than 100 µM. It also gave a TGI (SNB-19 CNS) greater than 100 µM, a TGI (SNB-75 CNS) greater than 100 µM and a TGI (SNB-78 CNS) greater than 100 µM. It also gave a TGI (SR leukemia) greater than 100 µM, a TGI (SW-620 colon) greater than 100 µM and a TGI (TK-10 renal) greater than 100 µM. The TGI (U251 CNS) was greater than 100 µM, the TGI (UACC-257 melanoma) was greater than 100 µM and the TGI (UACC-62 melanoma) was greater than 100 µM. It also gave a TGI (UO-31 renal) greater than 100 µM and a TGI (XF 498 CNS) greater than 100 µM.
